Laboratory results reported in patent US12569465B2, “Method for activating follicles by means of using small-molecule compound, and preparation thereof” (TSINGTAO A-SMART MEDICAL TECHNOLOGY CO., LTD., priority 2020, dated 2026).

What was measured:
[1] = system: PD2 mouse ovaries (primordial follicles); assay: In vitro culture of PD2 mouse ovaries, follicle counting; format: cell-based; conditions: VCD 1-1000 nM on first day of culture, then 3 days normal medium, compared with control group
Description: (§1) Neonatal 2-day (PD2) or 12-day (PD12) C57bl/6 mice (provided by Shandong University Experimental Animal Center) were executed by decapitation and the ovaries and surrounding tissues were dissected and separated under a dissecting microscope, and the excised ovaries were placed in Leibovitz's L-15 medium (containing 10% fetal bovine serum+0.5% penicillin+0.5% streptomycin). The adipose tissue was dissected and separated. The separated ovaries were washed three times in PBS.
(§2) Configure ovarian medium: 1 mg/ml bovine serum albumin (BSA, Cat #A4161-1G, Sigma), 1 mg/ml AbluMAX II Lipid-Rich BSA (Cat #11021029, Gibco), 5% Insulin-Transferrin-Selenium (ITS-G) (Cat #41400-045, Gibco), 0.5% Penicillin+0.5% Streptomycin and 100 nM VCD were added into DMEM/F12 (Cat #11039-021, Gibco) medium. The prepared medium was mixed and added to a six-well plate with 1.5 ml of medium per well. A sieve (Cat #PICMORG50, Millipore) was put on the medium and placed in the incubator to preheat.
(§3) The separated ovaries were transferred to the ovarian medium with a pipette, washed three times and placed on the upper sieve of the pre-warmed medium. A drop of medium was added around the ovaries in the upper sieve to keep the area around the ovaries moist. The six-well plates were placed in a 37° C., 5% CO2 incubator for four consecutive days, and the lower layer of medium was changed daily. […]

PI3K-Akt pathway = assay: Western blot for phosphorylation of proteins associated with follicle activation in the ovary; format: cell-based; conditions: PD2 mouse ovaries; 10 nM VCD for 2-3 min in vitro
Experimental: PD2 mice were dissected in autopsy solution (Leibovitz's L-15 medium, […], Gibco; +10% fetal bovine serum (FBS)) after execution, washed twice in ovarian medium and incubated in ovarian medium. After incubation in medium with or without VCD for 3 min. ovarian tissue was collected and lysed in RIPA lysis solution (Cat #89900, Thermo) for digestion. Proteins were denatured and separated by SDS PAGE and transferred to PVDF membranes (Millipore). The membranes were incubated with primary antibodies followed by incubation with HRP-conjugated secondary antibodies and the bands were examined using an enhanced chemiluminescence detection kit (Bio-Rad).
(§4) anti-rabbit aromatase (Cat #NBP1-45360, Novus, 1:2000), anti-rabbit phosphor-AKT (Serine 473) (D9E) (Cat #4060, Cell Signaling, 1:500), anti-rabbit phosphor-FoxO1 (Threonine 24)/FoxO3a (Threonine 32) (Cat #9464, Cell Signaling, 1:500), anti-rabbit phosphor-P-S6 (Serine 235/236) (Cat #4858, Cell Signaling, 1:1000), anti-rabbit phosphor-P-S6 (Serine 240/244) (Cat #2215, Cell Signaling, 1:1000), anti-rabbit phosphor-P70S6k (Threonine 389) (Cat #9205, Cell Signaling, 1:1000), anti-rabbit (Cat #7074S, CST) or anti-mouse (Cat #7076S, CST).
Two-day-old (PD2) mouse ovaries were isolated and cultured in vitro according to the method described in Example 1. […]

[2] = system: PD12 mouse ovaries (secondary follicles); assay: In vitro culture of PD12 mouse ovaries, secondary follicle counting; format: cell-based; conditions: 4 days with VCD 1-1000 nM, compared to control group
Description: as §1, §2, §3

[3] = system: PD12 C57bl/6 female mice ovaries; assay: Follicle development in neonatal mice in vivo; set-up: species or system mouse; conditions: 20 or 160 mg/kg intraperitoneal, 5 consecutive days, compared to saline control
Experimental: PD12 C57bl/6 mice in the same litter were divided into experimental and control groups according to body weight. The experimental mice were weighed and given either 20 mg/kg or 160 mg/kg of VCD by intraperitoneal injection, while the control mice were given the same volume of saline. After […] of continuous administration, the mice were executed and the ovaries were dissected to separate the adipose tissue under the microscope and fixed in 4% PFA. Dehydrated sections were used to observe and count the development of follicles in the ovaries at different times.
According to the method described in Example 1, the same litter of PD12 C57bl/6 female mice was divided into experimental and control groups according to body weight and given 20 mg/kg or 160 mg/kg of VCD by intraperitoneal injection, while the control mice were given the same volume of saline. Each group (N=6) was administered for 5 consecutive days, and then the mice were executed and the collected ovaries were stained to observe the morphology as shown in FIG. 3A (yellow arrows indicate early sinus follicles and red arrows indicate sinus follicles).

[4] = system: 10-12 month old C57bl/6 ovaries; assay: Ovulation stimulation experiment in old mice; format: in vivo, mouse; conditions: 80 mg/kg intraperitoneal, 5 days, then PMSG/hCG
Experimental: 10-12 month old C57bl/6 […] were divided into experimental and control groups according to body weight, and the experimental group was weighed and injected intraperitoneally with 80 mg/kg of VCD, while the control group was given the same volume of saline. After 5 days of continuous administration, 5 units of PMSG were injected to the experimental group and the control group, and 10 IU of hCG was injected 48 hours later to induce secondary ovulation. Mice were executed 16 hours after hCG injection, and both oviducts were collected and placed in M2 dissecting solution (Cat #M7167, Sigma), and the oocyte-granulosa cell complexes were seen when cutting the dilated oviducts under a dissecting microscope. The granulosa cell complexes from each mouse were transferred to a droplet of hyaluronidase (Cat #90101, Fujifilm Irvine Scientific) and the number of eggs per mouse was counted under a microscope after the granulosa cells around the oocytes had been digested.
According to the method described in Example 1, 10-12 month old C57bl/6 […] were divided into experimental and control groups according to their body weight, and the experimental group was weighed and injected intraperitoneally with 80 mg/kg of VCD, while the control group was given the same volume of saline. […]

aromatase [5] = assay: Aromatase expression in primary mouse granulosa cells; format: cell-based; conditions: PD20 primary granulosa cells; VCD 1-1000 nM, 24 h
Description: as §4
Granulosa cells were isolated from the ovaries of PD20 mice according to the method described by Reddy P et al, Science 2008, 319(5863):611-613 and Liu Y X et al Biol Reprod 1986, 35(1):27-36, from which primary granulosa cell lines were obtained. They were treated with different concentrations of VCD (0, 1 nM, 10 nM, 100 nM, 1000 nM) for 24 h, using 50 ng/ml FSH as control.

aromatase [6] = assay: Aromatase expression in KGN cells; format: cell-based, human; conditions: VCD 1-1000 nM, 24 h
Description: as §4
(§5) Human-derived granulocyte-like cell line KGN (provided by Prof. Toshihiko Yanase, Fukuoka University, Japan) was cultured in DMEM/F12 medium. KGN were treated with different concentrations of VCD (0, 1 nM, 10 nM, 100 nM, 1000 nM) for 24 h, using 50 ng/ml FSH as control.

KGN cells = assay: Estradiol (E2) levels in KGN cell culture supernatants (ELISA); format: cell-based, human; conditions: 24 h, versus control group
Experimental: KGN cell supernatants were collected after 24 hours of cell culture for the detection of E2 levels. The procedure of the assay followed the instructions of the E2 Assay Kit (Human Estradiol (E2) ELISA Kit, Cat #KAQ0621, Invitrogen).
as §5

[7] = system: primordial and primary follicles; conditions: rodents; prior studies; cited from earlier work

For `C1CC2OC2CC1C1CO1` (stereo not shown) [VCD, 4-vinylcyclohexene diepoxide], the “number of primordial follicles and early primary follicles” value [1] was “significantly increased”, the “activation of PI3K-Akt pathway (phosphorylation of involved proteins, Western blot)” value (PI3K-Akt pathway) was “significantly activate” and the “number of secondary follicles” value [2] was “significantly increased”. For the same molecule, the “follicles close to the preovulatory stage in the ovaries” value [3] was “more follicles close to the preovulatory stage”, the “follicle counts (sinus follicles, corpus luteum) in ovaries” value [4] was “more sinus follicles as well as newly formed corpus luteum” and the MII oocytes ovulated ([4]; versus saline control) was “more oocytes”. For the same molecule, the “expression level of aromatase in mouse granulosa cells” value (aromatase [5]) was “significantly increased”, the “expression level of aromatase in KGN” value (aromatase [6]) was “significantly increased” and the “level of estrogen (E2) in cell supernatant” value (KGN cells) was “significantly higher”. For the same molecule, the ovotoxicity to follicles [7] was “induces atretic degeneration of primordial and primary follicles”.
